The record followed here is US5245034A, “Compound having vessel smooth muscle relaxation activity” (Hidaka; Kiroyoshi, priority 1988, dated 1993).

Assay [1] concerns the target Calmodulin-Dependent Phosphodiesterase (Ca^2+ PDE). Put plainly: Calmodulin-Dependent Phosphodiesterase Inhibition (Ca^2+ PDE). It is filed as biochemical, rat. To be noted: [^3 H]-cGMP, 30° C. How it is done:
Phosphodiesterase (Ca^2+ PDE)Ca^2+ PDE was partially purified from the brain of rat by DEAE-Sepharose column chromatography.
Calmodulin was purified from the calf brain using a calmodulin inhibitor W-7 affinity column.
A reaction mixture contained 20 μl of 500 mM Tris-HCl (pH 8.0), 20 μl of 50 mM MgCl2, 20 μl of 2 mM CaCl2 (or 10 mM EGTA), 20 μl of 1 mg/ml bovine serum albumin, PDE, […] of calmodulin, test sample and distilled water to make total volume 200 μl. To the mixture was added 20 μl of 4 μM [^3 H]-cGMP (2.5 μCi/ml), the mixture was incubated at 30° C. for 15 minutes, and then heated in boiling water for 3 to 5 minutes to terminate the reaction, and cooled in ice-water bath. 20 μg of 5'-nucleotidase (Snake venum) was added to the mixture, and the mixture was again incubated at 30° C. for 10 minutes. After addition of about 2 ml of water, the sample was applied to a cation exchange resin column (Biorad AG.AG50W-X4 to adsorbe the [^3 H]-guanosine and additionally about 2 ml of washing water for the sample was added to the column. The column was washed with about 20 ml of water, and the adsorbed [^3 H]-guanosine was eluted with 3 ml of 3N NH4 OH, and the elute was directly received by a vial. After an addition of 10 ml of an emulsified scintillation solution (ACS-II, AMERSHAM) the radio activity was measured by a scintillation counter LS7500 (Beckmann). The enzyme activity in the presence of calmodulin was taken as […], and a concentration of a test compound in μM which provides a 50% inhibition was expressed as IC50.

Assay [2] has as its system superior mesenteric artery (contracted by potassium chloride). Description: Vessel Smooth Muscle Relaxation Action (V.R.). The format is cell-based, rabbit. The conditions noted are these: Oryctolagus cuniculus; concentration relaxing KCl-contracted strain to 50%; cumulative administration; read-out: V.R. (ED50). From the text:
The specimen was suspended by loading a strain in Krebs-Henseleit solution through which an oxygen gas containing 5% carbon dioxide was bubbled. The specimen was contracted by adding potassium chloride to maintain a predetermined strain. Thereafter, a test compound was cumulatively administrated.

The structures appear in SMILES notation.

Usually IC50 stands for the midpoint of a concentration-inhibition curve. `CN(C(Cc1cnc[nH]1)CN1CCN(c2ccccc2)CC1)S(=O)(=O)c1cccc2cnccc12` (stereo not shown) [Example 4, N-[1-(Imidazol-4(5)-Yl-Methyl)-2-(4 -Phenylpiperazinyl)Ethyl]-N-Methyl-5-Isoquinoline Sulfonamide]: in assay [1], the IC50 was found to be 53 µM. Moreover, in assay [2], the EC50 came to 12 µM. In assay [1], `O=C(C(Cc1ccc([N+](=O)[O-])cc1)NS(=O)(=O)c1cccc2cnccc12)N1CCN(c2ccccc2)CC1` (stereo not shown) [Example 11, 1-[N-(5-Isoquinolinesulfonyl)-P-Nitrophenylalanyl]-4-Phenylpiperazine] registered an IC50 of 59 µM. For the compound `CN(C(Cc1ccc(N)cc1)C(=O)N1CCN(c2ccccc2)CC1)S(=O)(=O)c1cccc2cnccc12` (stereo not shown) [Example 13, 1-[P-Amino-N-(5-Isoquinolinesulfonyl)-N-Methylalanyl]-4-Phenylpiperazine], half-maximal inhibition in assay [1] (IC50) required 15 µM. Besides, the EC50 in assay [2] turned out to be 1.2 µM.

`Cc1ccc(S(=O)(=O)Nc2ccc(CC(NS(=O)(=O)c3cccc4cnccc34)C(=O)N3CCN(c4ccccc4)CC3)cc2)cc1` (stereo not shown) [Example 15, 1-[N-(5-Isoquinolinesulfonyl)-P-(P-Toluenesulfonylamino)Phenylalanyl]-4-Phenylpiperazine] displayed an IC50 in assay [1] of 43 µM. As for `CN(C(Cc1ccc(NS(C)(=O)=O)cc1)C(=O)N1CCN(c2ccccc2)CC1)S(=O)(=O)c1cccc2cnccc12` (stereo not shown) [Example 19, 1-[N-(5-Isoquinolinesulfonyl)-P-Methanesulfonylamino-N-Methylphenylalanyl]-4-Phenylpiperazine], the IC50 in assay [1] was determined as 20 µM. Moreover, the EC50 in assay [2] came out at 22 µM. Taken in the same sequence, the figures for `CN(C(Cc1ccc(NS(=O)(=O)c2cccc3ccccc23)cc1)C(=O)N1CCN(c2ccccc2)CC1)S(=O)(=O)c1cccc2cnccc12` (stereo not shown) [Example 20, 1-[N-(5-isoquinolinesulfonyl)-N-methyl-p-(1-naphtharenesulfonylamino)phenylalanyl]-4-phenylpiperazine] were 23 µM and 1 µM.

In the case of `CN(c1ccc(CC(C(=O)N2CCN(c3ccccc3)CC2)N(C)S(=O)(=O)c2cccc3cnccc23)cc1)S(=O)(=O)c1cccc2cnccc12` (stereo not shown) [Example 23, 1-{N-(5-Isoquinolinesulfonyl)-P-[N'-(5-Isoquinolinesulfonyl)-N'-Methylamino]-N-Methylphenylalanyl}-4-Phenylpiperazine], the IC50 in assay [1] worked out at 66 µM. Also, the EC50 in assay [2] was found to be 0.25 µM. Taken in the same sequence, the figures for `CN(c1ccc(CC(C(=O)N2CCN(c3ccccc3)CC2)N(C)S(=O)(=O)c2cccc3cnccc23)cc1)S(C)(=O)=O` (stereo not shown) [Example 24, 1-[N-(5-isoquinolinesulfonyl)-p-(N'-methanesulfonyl-N'-methylamino) N-methylphenylalanyl]-4-phenylpiperazine] were 63 µM and 8.3 µM. In assay [1], `CN(c1ccc(CC(C(=O)N2CCN(c3ccccc3)CC2)N(C)S(=O)(=O)c2cccc3cnccc23)cc1)S(=O)(=O)c1cccc2ccccc12` (stereo not shown) [Example 25, 1-{N-(5-isoquinolinesulfonyl)-N-methyl-p-[N'-methyl-N'-(1-naphtharenesulfonyl)amino]phenylalanyl}-4-phenylpiperazine] yielded an IC50 of 70 µM. In addition, the EC50 in assay [2] was determined as 0.55 µM. Consider `CN(C(Cc1ccc(O)cc1)CN1CCN(c2ccccc2)CC1)S(=O)(=O)c1cccc2cnccc12` (stereo not shown) [Example 36, N-[1-(P-Hydroxybenzyl)-2-(4-Phenylpiperazinyl)Ethyl]-N-Methyl-5-Isoquinolinesulfonamide], for which the IC50 in assay [1] stood at 10.5 µM. In assay [2], the EC50 came to 0.81 µM. Take `O=S(=O)(NC(Cc1ccc(OS(=O)(=O)c2cccc3cnccc23)cc1)CN1CCN(c2ccc(F)cc2)CC1)c1cccc2cnccc12` (stereo not shown) [Example 48]: in assay [1], the IC50 came to 6.5 µM. Further, the EC50 in assay [2] was determined as 3.9 µM. As to `CN(C(Cc1ccc(OS(=O)(=O)c2cccc3ccccc23)cc1)CN1CCN(c2ccccc2)CC1)S(=O)(=O)c1cccc2ccccc12` (stereo not drawn) [Example 57, N-methyl-N-{1-[p-(α-naphtharenesulfonyloxy) -benzyl]-2-(4-phenylpiperazinyl)ethyl}-α-naphtharenesulfonamide], the IC50 in assay [1] stood at 50 µM. Also, the EC50 in assay [2] turned out to be 0.75 µM. Taken in the same sequence, the figures for `CN(C(Cc1ccc(O)cc1)CN1CCN(c2ccccc2)CC1)S(=O)(=O)c1cccc2ccccc12` (stereo not drawn) [Example 58, N-[1-(p-hydroxybenzyl)-2-(4-phenylpiperazinyl)ethyl]-N-methyl-α-naphtharenesulfonamide] were 63 µM and 0.25 µM. For the compound `O=S(=O)(NC(Cc1ccc(OS(=O)(=O)c2cccc3cnccc23)cc1)CN1CCCN(c2ccccc2)CC1)c1cccc2cnccc12` (stereo not shown) [Example 80], in assay [1], 13 µM corresponded to half-maximal inhibition (IC50). For the same compound, in assay [2], the EC50 was 2.4 µM. Taken in the same sequence, the figures for `O=S(=O)(NC(Cc1ccc(O)cc1)CN1CCCN(c2ccccc2)CC1)c1cccc2cnccc12` (stereo not shown) [Example 82, N-[1-(P-Hydroxybenzyl)-2-(4-Phenylhomopiperazinyl)Ethyl]-5-Isoquinolinesulfonamide] were 33 µM and 0.86 µM. Taken in the same sequence, the figures for `CN(C(Cc1ccc(O)cc1)CN1CCCN(c2ccccc2)CC1)S(=O)(=O)c1cccc2cnccc12` (stereo not shown) [Example 83, N-[1-(P-Hydroxybenzyl)-2-(4-Phenylhomopiperazinyl)Ethyl]-N-Methyl-5-Isoquinolinesulfonamide] were 24 µM and 0.39 µM. The compound `Cc1ccc(COC2CCN(CC(Cc3ccc(O)cc3)NS(=O)(=O)c3cccc4cnccc34)CC2)cc1` (stereo not shown) [Example 85, N-{1-(P-Hydroxybenzyl)-2-{4-(P-Methylbenzyloxy)Piperidino]Ethyl}-Isoquinolinesulfonamide] yielded an IC50 in assay [1] of 75 µM. In turn, `O=S(=O)(NC(Cc1ccc(OS(=O)(=O)c2cccc3cnccc23)cc1)CN1CCC(OCc2ccc(Cl)c(Cl)c2)CC1)c1cccc2cnccc12` (stereo not shown) [Example 86] gave an IC50 in assay [1] of 24 µM. In addition, the EC50 in assay [2] turned out to be 13 µM. On the same counts, the results for `O=S(=O)(NC(Cc1ccc(O)cc1)CN1CCC(OCc2ccc(Cl)c(Cl)c2)CC1)c1cccc2cnccc12` (stereo not shown) [Example 87, N-{1-(p-hydroxybenzyl)-2-[4-(3,4-dichlorobenzyloxy)piperidino]ethyl}-5-isoquinolinesulfonamide] are 1.9 µM and 1.7 µM. `O=S(=O)(NC(Cc1ccc(OCc2ccccc2)cc1)CN1CCN(c2ccccc2)CC1)c1cccc2cnccc12` (stereo not shown) [Example 88, N-{1-[(4-benzyloxy)benzyl]-2-(4-phenylpiperazinyl)ethyl}-5-isoquinolinesulfonamide]: in assay [1], the IC50 worked out at 14 µM. Moreover, the EC50 in assay [2] was 4.3 µM. On the same counts, the results for `CN(C(Cc1ccc(O)cc1)CN1CCC(OCc2ccc(Cl)c(Cl)c2)CC1)S(=O)(=O)c1cccc2cnccc12` (stereo not shown) [Example 90, N-{2-[4-(3,4-Dichlorobenzyloxy)Piperidino]-1-(P-Hydroxybenzyl)Ethyl}-N-Methyl-5-Isoquinolinesulfonamide] are 3.4 µM and 0.33 µM. In assay [1], `COc1ccc(CC(CN2CCC(OCc3ccc(Cl)c(Cl)c3)CC2)N(C)S(=O)(=O)c2cccc3cnccc23)cc1` (stereo not shown) [Example 91, N-{2-[4-(3,4-Dichlorobenzyloxy)Piperidine]-1-(P-Methoxybenzyl)Ethyl}-N-Methyl-5-Isoquinolinesulfonamide] showed an IC50 of 10 µM. Further, in assay [2], the EC50 came to 1.1 µM. For the compound `CN(C(Cc1ccc(OS(=O)(=O)c2cccc3cnccc23)cc1)CN1CCC(c2ccccc2)CC1)S(=O)(=O)c1cccc2cnccc12` (stereo not shown) [Example 92, N-{1-[p-(5-isoquinolinesulfonyloxy)benzyl]-2-(4-phenylpiperidino)ethyl}-N-methyl-5-isoquinolinesulfonamide], the IC50 in assay [1] was 63 µM.

The compound `CN(C(Cc1ccc(O)cc1)CN1CCC(c2ccccc2)CC1)S(=O)(=O)c1cccc2cnccc12` (stereo not shown) [Example 93, N-[1-(p-hydroxybenzyl)-2-(4-phenylpiperidino)ethyl]-N-methyl-5-isoquinolinesulfonamide] yielded an IC50 in assay [1] of 3.4 µM. In assay [2], the EC50 amounted to 0.31 µM.

In turn, `CN(C(Cc1ccc(OS(=O)(=O)c2cccc3cnccc23)cc1)CN1CCC(O)CC1)S(=O)(=O)c1cccc2cnccc12` (stereo not shown) [Example 99, N-{2-(4-Hydroxypiperidino)-1-[P-(5-Isoquinolinesulfonyloxy)Benzyl]Ethyl}-N-Methyl-5-Isoquinolinesulfonamide] had an IC50 in assay [1] of 61 µM. In addition, in assay [2], the EC50 was 2.8 µM. Taken in the same sequence, the figures for `O=S(=O)(c1cccc2cnccc12)N(Cc1ccc(Cl)c(Cl)c1)C(Cc1ccc(O)cc1)CN1CCC(O)CC1` (stereo not shown) [Example 105, N-3,4-Dichlorobenzyl-N-[1-(P-Hydroxybenzyl)-2-(4-Hydroxypiperidino)Ethyl]-5-Isoquinolinesulfonamide] were 12 µM and 5.4 µM. `O=S(=O)(NCCN(CC=Cc1ccc(Cl)cc1)Cc1ccc(O)cc1)c1cccc2cnccc12` [Example 194, N-{2-[4-Chloro-N-(4-Hydroxybenzyl)Cinnamylamino]ethyl}-5-Isoquinolinesulfonamide]: in assay [1], the IC50 was 80 µM.
